These are literature values, as cited in US11346820B2, “HPLC-PDA method and uses thereof in phytoestrogen measurement” (The Board Of Regents, The University of Texas System, priority 2019, dated 2022).

Like-named read-outs stand apart in the source and are kept apart here.

The conditions of this series: nonrepresentative subset of adults, N=199, Valentin-Blasini, et al.

With `Oc1ccc([C@H]2COc3cc(O)ccc3C2)cc1` (racemic) [Equol], the means recovered was 36 ng/mL. The means recovered (units converted) is 0.148 µmol/L.

Take `O=c1c(-c2ccc(O)cc2)coc2cc(O)cc(O)c12` [Genistein]: the means recovered was 129 ng/mL. Besides, under “units converted”, the means recovered was 0.477 µmol/L.
